One experiment has as its target T1, EPAC2 (Mus musculus, UniProt Q9EQZ6).
T1 sequence (Q9EQZ6 1-1011): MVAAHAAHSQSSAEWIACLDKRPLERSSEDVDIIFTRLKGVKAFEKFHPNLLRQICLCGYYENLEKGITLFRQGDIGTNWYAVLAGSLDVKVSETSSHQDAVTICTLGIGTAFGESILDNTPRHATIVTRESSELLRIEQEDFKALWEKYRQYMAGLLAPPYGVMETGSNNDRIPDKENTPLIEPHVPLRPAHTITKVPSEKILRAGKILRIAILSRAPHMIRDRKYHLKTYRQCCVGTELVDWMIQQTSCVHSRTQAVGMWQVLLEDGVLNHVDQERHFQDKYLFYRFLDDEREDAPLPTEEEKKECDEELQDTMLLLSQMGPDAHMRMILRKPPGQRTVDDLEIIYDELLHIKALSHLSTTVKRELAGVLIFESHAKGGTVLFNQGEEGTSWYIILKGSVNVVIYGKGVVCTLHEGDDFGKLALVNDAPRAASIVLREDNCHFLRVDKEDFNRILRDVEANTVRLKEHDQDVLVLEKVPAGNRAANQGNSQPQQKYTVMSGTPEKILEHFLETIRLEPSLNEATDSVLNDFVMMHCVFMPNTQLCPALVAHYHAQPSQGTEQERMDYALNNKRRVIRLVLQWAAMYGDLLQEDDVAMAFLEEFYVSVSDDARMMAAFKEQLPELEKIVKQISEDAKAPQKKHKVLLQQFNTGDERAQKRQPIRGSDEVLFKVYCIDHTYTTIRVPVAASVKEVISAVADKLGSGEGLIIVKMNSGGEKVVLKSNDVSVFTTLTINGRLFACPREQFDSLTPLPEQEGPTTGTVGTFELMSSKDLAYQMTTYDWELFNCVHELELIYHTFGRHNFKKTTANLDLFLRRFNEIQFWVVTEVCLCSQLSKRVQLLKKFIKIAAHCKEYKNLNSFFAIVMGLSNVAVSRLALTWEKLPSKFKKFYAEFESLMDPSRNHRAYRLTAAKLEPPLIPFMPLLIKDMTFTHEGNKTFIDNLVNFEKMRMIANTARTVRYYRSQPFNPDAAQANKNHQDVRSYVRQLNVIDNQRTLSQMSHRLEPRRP
As to the kind of experiment: 8-NBD-cAMP competition binding assay. The note with it: for Relative Potency (RA): RA = IC50, cAMP/ IC50, compound; for EPAC2 inhibitory activity (in words): 8-NBD-cAMP competition.

A further experiment deals with type II PKA holoenzyme. Description: Counter screening assay, type II PKA holoenzyme kinase activity. Format: biochemical. Conditions: 25 µM compound, 0.1 mM cAMP.
The next experiment deals with type I PKA holoenzyme. As to the kind of experiment: Counter screening assay, type I PKA holoenzyme kinase activity. Format: biochemical. The note with it: 25 µM compound, 0.1 mM cAMP. A general note: Counterscreens check selectivity or assay interference.

pIC50: −log10 of the molar value. Where a name gives a salt, the structure may show the parent alone.

As for `CCc1cccn1S(=O)(=O)c1cc(C)cc(C)c1` [Compound 20g, 1-(3,5-Dimethylbenzenesulfonyl)-2-ethyl-1H-pyrrole], the “Relative Potency (RA)” value at EPAC2 amounted to 8.5.

Turning to `Cc1cc(C)c(S(=O)(=O)c2ccc(OCCN)cc2)c(C)c1` [Compound 11d, 2-[4-(2,4,6-Trimethylbenzenesulfonyl)phenoxy]ethylamine], on EPAC2, the pIC50 is less than 3.52 and the “Relative Potency (RA)” value is less than 0.13.

With `Cc1cc(C)c(S(=O)(=O)n2ccc3ccncc32)c(C)c1` [Compound 24c, 1-(2,4,6-Trimethylbenzenesulfonyl)-1H-pyrrolo[2,3-c]pyridine], at EPAC2, the “Relative Potency (RA)” value stood at 3.2.

Take `Cc1cc(C)c(S(=O)(=O)n2ccc3cnccc32)c(C)c1` [Compound 24b, 1-(2,4,6-Trimethylbenzenesulfonyl)-1H-pyrrolo[3,2-c]pyridine]: the “Relative Potency (RA)” value on EPAC2 came out at 4.5.

For the compound `O=S(=O)(NCCNC/C=C/c1ccc(Br)cc1)c1cccc2cnccc12` [Compound H89, N-[2-[[3-(4-bromophenyl)-2-propenyl]amino]ethyl]-5-isoquinolinesulfonamide dihydrochloride, reference compound], the “Effect on cAMP-induced type II PKA holoenzyme activation” value in the experiment with type II PKA holoenzyme was “blocked the type I or II PKA activities completely”. Further, the “Effect on cAMP-induced type I PKA holoenzyme activation” value in the experiment with type I PKA holoenzyme was “blocked the type I or II PKA activities completely”.

Take `Cc1cc(C)c(S(=O)(=O)n2ccc3cc(C(=O)O)ccc32)c(C)c1` [Compound 22c, 1-(2,4,6-Trimethylbenzenesulfonyl)-1H-indole-5-carboxylic acid]: at EPAC2, the “EPAC2 inhibitory activity (in words)” value is reported as “less active with a moderate potency” and the “Relative Potency (RA)” value is 3.7.

`Cc1cc(C)c(S(=O)(=O)c2ccc(O)cc2)c(C)c1` [Compound 10, 4-(2,4,6-Trimethylbenzenesulfonyl)phenol]: the “Relative Potency (RA)” value on EPAC2 is on record as 3.0.

In the case of `Cc1cc(C)c(Nc2cc(Cl)cc(Cl)c2)c(C)c1` [Compound 14b, (3,5-Dichlorophenyl)-(2,4,6-trimethylphenyl)amine], the “Relative Potency (RA)” value on EPAC2 came to 44.4.

Take `Cc1cc(C)c(Nc2nc(C)c(C)s2)c(C)c1` [Compound 17, (4,5-Dimethylthiazol-2-yl)-(2,4,6-trimethylphenyl)amine]: at EPAC2, the pIC50 was less than 3.52, the “EPAC2 inhibitory activity (in words)” value is “no activity” and the “Relative Potency (RA)” value is listed as less than 0.13.

As to `Cc1cc(C)c(S(=O)(=O)c2ccc(C3CCCCC3)cc2)c(C)c1` [Compound 5c, 2-(4-Cyclohexylbenzenesulfonyl)-1,3,5-trimethylbenzene], at EPAC2, the negative-log IC50 (pIC50) is less than 3.52 and the “Relative Potency (RA)” value is less than 0.13.

In the case of `CCCCCc1ccc(S(=O)(=O)c2c(C)cc(C)cc2C)cc1` [Compound 5b, 1,3,5-Trimethyl-2-(4-pentylbenzenesulfonyl)benzene], on EPAC2, the pIC50 was less than 3.52 and the “Relative Potency (RA)” value is listed as less than 0.13.

In the case of `Cc1cc(C)c(S(=O)(=O)n2ccc3ccccc32)c(C)c1` [Compound 22a, 1-(2,4,6-Trimethylbenzenesulfonyl)-1H-indole], on EPAC2, the “EPAC2 inhibitory activity (in words)” value is given as “almost retained activity” and the “Relative Potency (RA)” value was found to be 33.3.

Consider `COc1ccc(S(=O)(=O)c2c(C)cc(C)cc2C)cc1` [Compound 8b, 2-(4-Methoxybenzenesulfonyl)-1,3,5-trimethylbenzene], for which the “Relative Potency (RA)” value on EPAC2 is 21.1.

Take `Cc1cc(C)c(S(=O)(=O)n2ccc3ncccc32)c(C)c1` [Compound 24a, 1-(2,4,6-Trimethylbenzenesulfonyl)-1H-pyrrolo[3,2-b]pyridine]: at EPAC2, the “Relative Potency (RA)” value came out at 10.5.

As for `CCc1cccn1S(=O)(=O)c1ccccc1C` [Compound 20f, 2-Ethyl-1-(toluene-2-sulfonyl)-1H-pyrrole], the “Relative Potency (RA)” value at EPAC2 is 7.5.

Regarding `Cc1ccc(Nc2c(C)cc(C)cc2C)cc1` [Compound 14a, p-Tolyl-(2,4,6-trimethylphenyl)amine], the “Relative Potency (RA)” value on EPAC2 amounted to 10.5.

With `CCc1cccn1S(=O)(=O)c1ccc(C)cc1C` [Compound 20h, 1-(2,4-Dimethylbenzenesulfonyl)-2-ethyl-1H-pyrrole], at EPAC2, the “Relative Potency (RA)” value came out at 30.8.

Turning to `Cc1cc(C)c(S(=O)(=O)c2ccc(OC3CCNCC3)cc2)c(C)c1` [Compound 11c, 4-[4-(2,4,6-Trimethylbenzenesulfonyl)phenoxy]piperidine], on EPAC2, the pIC50 was less than 3.52 and the “Relative Potency (RA)” value is reported as less than 0.13.

`CCc1cccn1S(=O)(=O)c1ccc(C)cc1` [Compound 20b, 2-Ethyl-1-(toluene-4-sulfonyl)-1H-pyrrole]: the “Relative Potency (RA)” value at EPAC2 was found to be 10.

Take `COC(=O)c1ccc2c(ccn2S(=O)(=O)c2c(C)cc(C)cc2C)c1` [Compound 22b, 1-(2,4,6-Trimethylbenzenesulfonyl)-1H-indole-5-carboxylic acid methyl ester]: on EPAC2, the negative-log IC50 (pIC50) is less than 3.52, the “EPAC2 inhibitory activity (in words)” value is “dramatic loss of activity” and the “Relative Potency (RA)” value is on record as less than 0.13.

In the case of `Cc1cc(C)c(S(=O)(=O)c2ccc(I)cc2)c(C)c1` [Compound 8a, 2-(4-Iodobenzenesulfonyl)-1,3,5-trimethylbenzene], the “Relative Potency (RA)” value on EPAC2 worked out at 10.

Turning to `Cc1cc(C)c(S(=O)(=O)n2ccc3cccnc32)c(C)c1` [Compound 24d, 1-(2,4,6-Trimethylbenzenesulfonyl)-1H-pyrrolo[2,3-b]pyridine], on EPAC2, the “EPAC2 inhibitory activity (in words)” value is recorded as “almost retained activity” and the “Relative Potency (RA)” value is 16.7.

In the case of `Cc1cc(C)c(S(=O)(=O)c2ccc(-c3ccc(F)nc3)cc2)c(C)c1` [Compound 9, 2-Fluoro-5-[4-(2,4,6-trimethylbenzenesulfonyl)phenyl]pyridine], on EPAC2, the pIC50 was less than 3.52 and the “Relative Potency (RA)” value is on record as less than 0.13.

`Cc1cc(C)c(S(=O)(=O)c2ccc(OC3CCCCC3)cc2)c(C)c1` [Compound 11a, 2-(4-Cyclohexyloxybenzenesulfonyl)-1,3,5-trimethylbenzene]: on EPAC2, the pIC50 was less than 3.52 and the “Relative Potency (RA)” value is less than 0.13.

For the compound `CCc1cccn1S(=O)(=O)c1ccc(OC)cc1` [Compound 20c, 2-Ethyl-1-(4-methoxybenzenesulfonyl)-1H-pyrrole], the “Relative Potency (RA)” value on EPAC2 is listed as 5.

Consider `CCc1cccn1S(=O)(=O)c1ccc(C(F)(F)F)cc1` [Compound 20e, 2-Ethyl-1-(4-trifluoromethyl-benzenesulfonyl)-1H-pyrrole], for which, at EPAC2, the pIC50 is less than 3.52, the “EPAC2 inhibitory activity (in words)” value is listed as “dramatic loss of EPAC inhibitory activity” and the “Relative Potency (RA)” value is less than 0.13.

As for `Cc1cc(C)c(S(=O)(=O)c2ccc(OC3CCN(C(=O)OC(C)(C)C)CC3)cc2)c(C)c1` [Compound 11b, 4-[4-(2,4,6-Trimethylbenzenesulfonyl)phenoxy]-piperidine-1-carboxylic acid tert-butyl ester], on EPAC2, the pIC50 is less than 3.52 and the “Relative Potency (RA)” value is less than 0.13.

For `Cc1cc(C)c(S(=O)(=O)c2cc(C)c(C)cc2C)c(C)c1` [Compound 5a, 1,3,5-Trimethyl-2-(2,4,5-trimethylbenzenesulfonyl)benzene], the “Relative Potency (RA)” value at EPAC2 is 57.1.

Broadly, the pIC50 is −log10 of the IC50, conventionally taken in molar units. Low values mean a high IC50, high ones a low IC50.

(Values after PMC3574212 (Journal of medicinal chemistry, 2013).)
